Earlier results in patent publication US20240307364A1, “GAS TRANSMISSION EMULSION FOR INTRAVENOUS ADMINISTRATION” (priority 2021, published 2024).
Like-named read-outs stand apart in the source and are kept apart here.

Experiments:
[1] = toxic or locally irritating properties of the detected impurity
[2] = measure of relative solubility of PFOC in lipids
[3] = 37° C.

CCOC(C)c1ccccc1 (single isomer, unassigned) [benzene, (1-ethoxyethyl)-]
Toxicity, yes/no [1]: yes

FC1(F)C(F)(F)C(F)(F)C(F)(F)C(F)(F)C1(F)F (single isomer, unassigned) [cyclohexane, dodecafluoro-]
Toxicity, yes/no [1]: yes

OCc1ccco1 (single isomer, unassigned) [furfurol]
Toxicity, yes/no [1]: yes

CCCCCO (single isomer, unassigned) [pentanol]
Toxicity, yes/no [1]: yes

FC(F)(F)C1(F)C(F)(F)C(F)(F)C(F)(F)C(F)(F)C1(F)F (single isomer, unassigned) [perfluoro(methylcyclohexane)]
Toxicity, yes/no [1]: no

Cc1cc(O)n(Cc2ccccc2)c(=O)c1C#N [1-benzyl-6-hydroxy-4-methyl-2(1H)-oxo-3-pyridinecarbonitrile]
Toxicity, yes/no [1]: yes

CC1=NN(c2ccccc2)C(=O)C1 [3H-pyrazol-3-one, 2,4-dihydro-5-methyl-2-phenyl-]
Toxicity, yes/no [1]: yes

FC(F)(F)C(F)(F)C(F)(F)N1C(F)(F)C(F)(F)C(F)(F)C(F)(F)C1(F)C(F)(F)F (stereo not drawn) [Perfluoro-1-propyl-2 methylpiperidine]
TcrH (temperature at which equal volumes of PFOC and hexane are mixed together) [2]: 35 °C
P, vapor tension [3]: 19 mm Hg
t1/2, elimination half-life (elimination from an organism): 24 days
Grade of clearance rate (in vivo): Fast

FC1(F)C(F)(F)C(F)(F)C2(F)C(F)(F)C(F)(F)C(F)(F)C2(F)C1(F)F (stereo not drawn) [Perfluorobicyclo[4.3.0]nonane]
TcrH (temperature at which equal volumes of PFOC and hexane are mixed together) [2]: 13 °C
P, vapor tension [3]: 33 mm Hg
t1/2, elimination half-life (elimination from an organism): 4 days
Grade of clearance rate (in vivo): Fast

FC1(F)C(F)(F)C2(F)C(F)(F)C(F)(F)C(F)(F)C3(F)C(F)(F)C(F)(F)C(F)(C1(F)F)C23F (stereo not drawn) [Perfluorodecahydroacenaphthene]
TcrH (temperature at which equal volumes of PFOC and hexane are mixed together) [2]: 24 °C
P, vapor tension [3]: 2 mm Hg
t1/2, elimination half-life (elimination from an organism): 7 days
Grade of clearance rate (in vivo): Fast

FC1(F)C(F)(F)C(F)(F)C2(F)C(F)(F)C(F)(F)C(F)(F)C(F)(F)C2(F)C1(F)F (stereo not drawn) [Perfluorodecalin (PFD), Perfluorodecalin]
TcrH (temperature at which equal volumes of PFOC and hexane are mixed together) [2]: 22 °C
P, vapor tension [3]: 12 mm Hg
Grade of clearance rate (in vivo): Fast

FC(F)(F)N1C(F)(F)C(F)(F)C(F)(C2(F)C(F)(F)C(F)(F)C(F)(F)C(F)(F)C2(F)F)C(F)(F)C1(F)F [Perfluoromethylcyclohexylpiperidine]
t1/2, elimination half-life (elimination from an organism): 90 days
Grade of clearance rate (in vivo): Slow

FC(F)(F)C(F)(F)C(F)(F)C(F)(F)C(F)(F)C(F)(F)C(F)(F)C(F)(F)Br [Perfluorooctyl bromide (PFOB), Perfluorooctyl bromide]
TcrH (temperature at which equal volumes of PFOC and hexane are mixed together) [2]: −20 °C
P, vapor tension [3]: 10.5 mm Hg
Grade of clearance rate (in vivo): Fast

FC(F)(F)C(F)(F)C(F)(F)C(F)(F)N(C(F)(F)C(F)(F)C(F)(F)C(F)(F)F)C(F)(F)C(F)(F)C(F)(F)C(F)(F)F [Perfluorotributylamine (PFTBA), Perfluorotributylamine]
TcrH (temperature at which equal volumes of PFOC and hexane are mixed together) [2]: 61 °C
P, vapor tension [3]: 1 mm Hg
t1/2, elimination half-life (elimination from an organism): 400 to 900 days
Grade of clearance rate (in vivo): Slow

FC(F)(F)C(F)(F)C(F)(F)N(C(F)(F)C(F)(F)C(F)(F)F)C(F)(F)C(F)(F)C(F)(F)F [Perfluorotripropylamine (PFTPA), Perfluorotripropylamine]
TcrH (temperature at which equal volumes of PFOC and hexane are mixed together) [2]: 43 °C
P, vapor tension [3]: 17 mm Hg
t1/2, elimination half-life (elimination from an organism): 65 days
Grade of clearance rate (in vivo): Slow

CCOC(=O)c1ccccc1 [benzoic acid ethyl ester]
Toxicity, yes/no [1]: yes

CC1C=CCC(C)(C)C1 (stereo not drawn) [cyclohexene, 3,5,5-trimethyl-]
Toxicity, yes/no [1]: yes

CC(C)COC(=O)c1ccccc1C(=O)OCC(C)C [diisobutyl phthalate]
Toxicity, yes/no [1]: yes

COC(=O)c1ccccc1C(=O)OC [dimethyl phthalate]
Toxicity, yes/no [1]: no

OCC(O)CO [glycerol]
Toxicity, yes/no [1]: no

Fc1ccc2ccccc2c1 [naphthalene, 2-fluoro-]
Toxicity, yes/no [1]: yes

c1ccc2ccccc2c1 [naphthalene]
Toxicity, yes/no [1]: yes

CO/C(=N\O)c1ccccc1 [oxime-, methoxy-phenyl-]
Toxicity, yes/no [1]: yes

FC(F)(F)N(C(F)(F)C(F)(F)C(F)(F)C(F)(F)F)C1(F)C(F)(F)C(F)(F)C(F)(C(F)(F)F)C(F)(F)C1(F)F (stereo not drawn) [perfluoromethylbutyl(4-methylcyclohexyl)amine]
Toxicity, yes/no [1]: no

Cc1cc(Cc2cc(C)cc(C(C)(C)C)c2O)c(O)c(C(C)(C)C)c1 [phenol, 2,2′-methylenebis[6-(1,1-dimethylethyl)-4-methyl-]
Toxicity, yes/no [1]: yes

CN(C)C(=S)N(C)C [thiourea, tetramethyl-]
Toxicity, yes/no [1]: yes

O-ethyl-methoxy-phenyl-oxime
Toxicity, yes/no [1]: yes

Perfluorodihexyl ether
TcrH (temperature at which equal volumes of PFOC and hexane are mixed together) [2]: 59 °C
P, vapor tension [3]: 2 mm Hg
t1/2, elimination half-life (elimination from an organism): 500 days
Grade of clearance rate (in vivo): Slow

Perfluorodimethyladamantane [Perfluorodimethyladamantane (PFDMA)]
TcrH (temperature at which equal volumes of PFOC and hexane are mixed together) [2]: 32 °C
Grade of clearance rate (in vivo): Fast
t1/2, elimination half-life (in vivo): 10 to 20 days
